Tests used:
[1] = test system: Tyrosine-protein kinase ABL1 (Homo sapiens), P00519 [F317L]; details: Compound concentration 1000.0 nM
[2] = test system: Tyrosine-protein kinase ABL1 (Homo sapiens), P00519 [T315I]; details: Compound concentration 1000.0 nM
[3] = molecular target: Tyrosine-protein kinase ABL1 (Homo sapiens) (UniProt P00519); details: Compound concentration 1000.0 nM
[4] = molecular target: Ankyrin repeat and protein kinase domain-containing protein 1 (Homo sapiens) (UniProt Q8NFD2); details: Compound concentration 1000.0 nM
Chain of Ankyrin repeat and protein kinase domain-containing protein 1 (Homo sapiens) (Q8NFD2 whole entry, the tested form may be a part): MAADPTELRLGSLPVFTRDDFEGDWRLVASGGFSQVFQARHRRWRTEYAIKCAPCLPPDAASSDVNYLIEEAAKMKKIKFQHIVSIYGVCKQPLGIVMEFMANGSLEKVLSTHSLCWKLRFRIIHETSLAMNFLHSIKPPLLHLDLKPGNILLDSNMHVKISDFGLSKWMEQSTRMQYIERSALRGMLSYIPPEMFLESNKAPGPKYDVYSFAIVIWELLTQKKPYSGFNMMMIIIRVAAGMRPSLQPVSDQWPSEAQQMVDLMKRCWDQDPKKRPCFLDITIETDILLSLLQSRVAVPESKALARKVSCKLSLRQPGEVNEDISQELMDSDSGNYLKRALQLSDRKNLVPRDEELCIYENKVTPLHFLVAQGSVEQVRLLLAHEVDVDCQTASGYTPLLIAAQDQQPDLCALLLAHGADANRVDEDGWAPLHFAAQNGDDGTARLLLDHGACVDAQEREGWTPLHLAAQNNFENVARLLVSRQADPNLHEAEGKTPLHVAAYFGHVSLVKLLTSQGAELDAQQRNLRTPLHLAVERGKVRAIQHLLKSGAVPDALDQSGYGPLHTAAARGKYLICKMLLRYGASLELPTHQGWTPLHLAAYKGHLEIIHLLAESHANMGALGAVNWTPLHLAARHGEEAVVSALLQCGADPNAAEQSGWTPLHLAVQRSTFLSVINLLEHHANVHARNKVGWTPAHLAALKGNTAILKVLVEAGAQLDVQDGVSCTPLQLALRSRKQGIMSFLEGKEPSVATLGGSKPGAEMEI

[5] = molecular target: Bone morphogenetic protein receptor type-2 (Homo sapiens) (UniProt Q13873); details: Compound concentration 1000.0 nM
[6] = molecular target: Serine/threonine-protein kinase B-raf (Homo sapiens) (UniProt P15056); details: Compound concentration 1000.0 nM
[7] = test system: Serine/threonine-protein kinase B-raf (Homo sapiens), P15056 [V600E]; details: Compound concentration 1000.0 nM
[8] = molecular target: Calcium/calmodulin-dependent protein kinase type II subunit alpha (Homo sapiens) (UniProt Q9UQM7); details: Compound concentration 1000.0 nM
[9] = molecular target: Calcium/calmodulin-dependent protein kinase kinase 2 (Homo sapiens) (UniProt Q96RR4); details: Compound concentration 1000.0 nM
[10] = molecular target: Cyclin-dependent kinase 7 (Homo sapiens) (UniProt P50613); details: Compound concentration 1000.0 nM
Chain of Cyclin-dependent kinase 7 (Homo sapiens) (P50613 whole entry): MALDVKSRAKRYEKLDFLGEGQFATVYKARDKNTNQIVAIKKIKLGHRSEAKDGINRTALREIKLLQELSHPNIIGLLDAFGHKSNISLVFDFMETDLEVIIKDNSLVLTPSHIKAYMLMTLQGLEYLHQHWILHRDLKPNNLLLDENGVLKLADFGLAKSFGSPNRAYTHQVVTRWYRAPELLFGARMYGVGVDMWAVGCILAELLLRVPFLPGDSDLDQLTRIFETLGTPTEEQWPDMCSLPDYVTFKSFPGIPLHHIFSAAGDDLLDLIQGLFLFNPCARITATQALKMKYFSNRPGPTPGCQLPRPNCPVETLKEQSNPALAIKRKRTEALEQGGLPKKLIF

[11] = molecular target: Cyclin-dependent kinase 8 (Homo sapiens) (UniProt P49336); details: Compound concentration 1000.0 nM
[12] = molecular target: Serine/threonine-protein kinase 17A (Homo sapiens) (UniProt Q9UEE5); details: Compound concentration 1000.0 nM
[13] = test system: Epidermal growth factor receptor (Homo sapiens), P00533 [UNDEFINED MUTATION]; details: Compound concentration 1000.0 nM
[14] = test system: Epidermal growth factor receptor (Homo sapiens), P00533 [L861Q]; details: Compound concentration 1000.0 nM
[15] = molecular target: Ephrin type-B receptor 3 (Homo sapiens) (UniProt P54753); details: Compound concentration 1000.0 nM
[16] = molecular target: Ephrin type-B receptor 6 (Homo sapiens) (UniProt O15197); details: Compound concentration 1000.0 nM
[17] = molecular target: Mitogen-activated protein kinase 3 (Homo sapiens) (UniProt P27361); details: Compound concentration 1000.0 nM
Chain of Mitogen-activated protein kinase 3 (Homo sapiens) (P27361 whole entry): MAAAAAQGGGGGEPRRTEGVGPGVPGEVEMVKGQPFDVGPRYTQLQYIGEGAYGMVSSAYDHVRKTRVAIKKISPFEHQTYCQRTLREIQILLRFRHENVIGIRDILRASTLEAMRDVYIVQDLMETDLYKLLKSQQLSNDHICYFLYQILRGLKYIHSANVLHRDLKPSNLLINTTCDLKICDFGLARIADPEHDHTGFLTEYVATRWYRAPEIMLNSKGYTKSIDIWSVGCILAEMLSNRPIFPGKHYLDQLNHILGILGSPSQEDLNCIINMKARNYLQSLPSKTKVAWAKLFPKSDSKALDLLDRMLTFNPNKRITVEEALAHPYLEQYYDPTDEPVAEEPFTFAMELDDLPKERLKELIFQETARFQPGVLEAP

[18] = test system: Fibroblast growth factor receptor 3 (Homo sapiens), P22607 [G697C]; details: Compound concentration 1000.0 nM
Chain of Fibroblast growth factor receptor 3 (Homo sapiens), P22607 [G697C] (P22607 whole entry G697C): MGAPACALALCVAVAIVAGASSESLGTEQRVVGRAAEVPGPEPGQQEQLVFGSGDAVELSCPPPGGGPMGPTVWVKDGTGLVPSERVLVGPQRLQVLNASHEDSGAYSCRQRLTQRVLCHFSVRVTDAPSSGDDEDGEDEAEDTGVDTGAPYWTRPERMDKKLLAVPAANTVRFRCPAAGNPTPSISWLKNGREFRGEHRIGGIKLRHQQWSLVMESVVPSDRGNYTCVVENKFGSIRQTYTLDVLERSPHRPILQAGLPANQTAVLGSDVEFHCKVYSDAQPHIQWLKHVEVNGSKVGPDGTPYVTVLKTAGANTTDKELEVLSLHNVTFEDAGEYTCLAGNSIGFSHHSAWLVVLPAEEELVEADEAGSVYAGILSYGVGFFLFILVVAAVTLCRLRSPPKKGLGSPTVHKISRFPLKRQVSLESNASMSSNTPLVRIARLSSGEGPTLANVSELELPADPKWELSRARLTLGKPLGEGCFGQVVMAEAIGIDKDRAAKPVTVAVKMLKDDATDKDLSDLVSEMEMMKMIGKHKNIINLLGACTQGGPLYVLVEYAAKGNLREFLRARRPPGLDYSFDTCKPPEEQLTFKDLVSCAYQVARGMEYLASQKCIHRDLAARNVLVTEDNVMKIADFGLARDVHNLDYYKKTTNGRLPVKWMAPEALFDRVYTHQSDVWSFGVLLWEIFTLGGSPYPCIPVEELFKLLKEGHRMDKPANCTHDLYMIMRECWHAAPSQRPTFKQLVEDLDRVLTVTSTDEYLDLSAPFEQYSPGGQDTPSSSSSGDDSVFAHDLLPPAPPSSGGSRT

[19] = test system: Receptor-type tyrosine-protein kinase FLT3 (Homo sapiens), P36888 [D835H]; details: Compound concentration 1000.0 nM
[20] = molecular target: Mast/stem cell growth factor receptor Kit (Homo sapiens) (UniProt P10721); details: Compound concentration 1000.0 nM
[21] = test system: Mast/stem cell growth factor receptor Kit (Homo sapiens), P10721 [V559D,T670I]; details: Compound concentration 1000.0 nM
[22] = molecular target: Mitogen-activated protein kinase kinase kinase kinase 5 (Homo sapiens) (UniProt Q9Y4K4); details: Compound concentration 1000.0 nM
[23] = molecular target: Dual specificity mitogen-activated protein kinase kinase 7 (Homo sapiens) (UniProt O14733); details: Compound concentration 1000.0 nM
[24] = molecular target: Myosin light chain kinase 2, skeletal/cardiac muscle (Homo sapiens) (UniProt Q9H1R3); details: Compound concentration 1000.0 nM
Chain of Myosin light chain kinase 2, skeletal/cardiac muscle (Homo sapiens) (Q9H1R3 whole entry): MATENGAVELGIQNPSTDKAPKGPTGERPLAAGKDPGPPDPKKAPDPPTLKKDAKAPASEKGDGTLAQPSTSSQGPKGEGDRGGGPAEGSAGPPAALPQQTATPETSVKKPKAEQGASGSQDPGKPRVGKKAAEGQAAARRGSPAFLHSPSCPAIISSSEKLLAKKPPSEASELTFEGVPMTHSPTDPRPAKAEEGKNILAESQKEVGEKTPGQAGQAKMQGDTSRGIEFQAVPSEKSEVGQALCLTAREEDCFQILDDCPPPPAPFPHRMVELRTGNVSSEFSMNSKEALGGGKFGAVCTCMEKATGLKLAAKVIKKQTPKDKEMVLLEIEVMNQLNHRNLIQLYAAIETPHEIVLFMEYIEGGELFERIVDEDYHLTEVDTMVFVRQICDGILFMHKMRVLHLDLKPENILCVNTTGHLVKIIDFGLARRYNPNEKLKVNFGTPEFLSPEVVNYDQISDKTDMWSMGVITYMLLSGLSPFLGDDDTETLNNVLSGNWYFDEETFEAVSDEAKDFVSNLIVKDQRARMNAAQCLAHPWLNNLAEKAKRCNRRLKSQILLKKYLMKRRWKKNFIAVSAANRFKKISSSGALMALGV

[25] = molecular target: Myosin-IIIb (Homo sapiens) (UniProt Q8WXR4); details: Compound concentration 1000.0 nM
[26] = molecular target: Serine/threonine-protein kinase Nek1 (Homo sapiens) (UniProt Q96PY6); details: Compound concentration 1000.0 nM
[27] = molecular target: Serine/threonine-protein kinase NLK (Homo sapiens) (UniProt Q9UBE8); details: Compound concentration 1000.0 nM
[28] = test system: Phosphatidylinositol 4,5-bisphosphate 3-kinase catalytic subunit alpha isoform (Homo sapiens), P42336 [C420R]; details: Compound concentration 1000.0 nM
[29] = test system: Phosphatidylinositol 4,5-bisphosphate 3-kinase catalytic subunit alpha isoform (Homo sapiens), P42336 [E545K]; details: Compound concentration 1000.0 nM
[30] = molecular target: 1-phosphatidylinositol 3-phosphate 5-kinase (Homo sapiens) (UniProt Q9Y2I7); details: Compound concentration 1000.0 nM
[31] = molecular target: Rho-associated protein kinase 2 (Homo sapiens) (UniProt O75116); details: Compound concentration 1000.0 nM
[32] = molecular target: Ribosomal protein S6 kinase alpha-4 (Homo sapiens) (UniProt O75676); details: Compound concentration 1000.0 nM
Chain of Ribosomal protein S6 kinase alpha-4 (Homo sapiens) (O75676 whole entry, looked up): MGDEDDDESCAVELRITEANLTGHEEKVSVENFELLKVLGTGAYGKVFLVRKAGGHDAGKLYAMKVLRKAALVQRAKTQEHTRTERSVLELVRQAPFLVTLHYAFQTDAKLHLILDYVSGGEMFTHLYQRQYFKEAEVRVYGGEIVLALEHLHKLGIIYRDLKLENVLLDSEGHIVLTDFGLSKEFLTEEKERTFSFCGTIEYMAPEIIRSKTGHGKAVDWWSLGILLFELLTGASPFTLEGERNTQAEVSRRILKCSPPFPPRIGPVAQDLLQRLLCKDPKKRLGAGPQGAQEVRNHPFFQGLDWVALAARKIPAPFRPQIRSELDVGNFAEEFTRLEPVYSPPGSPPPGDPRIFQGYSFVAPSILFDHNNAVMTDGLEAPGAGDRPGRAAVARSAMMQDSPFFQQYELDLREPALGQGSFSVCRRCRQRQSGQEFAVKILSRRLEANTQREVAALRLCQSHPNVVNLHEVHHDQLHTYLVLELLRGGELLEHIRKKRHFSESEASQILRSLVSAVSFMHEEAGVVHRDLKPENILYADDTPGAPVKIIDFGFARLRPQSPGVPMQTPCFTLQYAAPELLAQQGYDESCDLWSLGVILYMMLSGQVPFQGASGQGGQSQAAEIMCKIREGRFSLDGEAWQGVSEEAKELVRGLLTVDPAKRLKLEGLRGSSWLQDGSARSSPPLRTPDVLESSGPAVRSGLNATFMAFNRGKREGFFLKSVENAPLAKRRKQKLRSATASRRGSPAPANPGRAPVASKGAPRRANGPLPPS

[33] = molecular target: Tyrosine-protein kinase Srms (Homo sapiens) (UniProt Q9H3Y6); details: Compound concentration 1000.0 nM
[34] = molecular target: Serine/threonine-protein kinase tousled-like 1 (Homo sapiens) (UniProt Q9UKI8); details: Compound concentration 1000.0 nM
Chain of Serine/threonine-protein kinase tousled-like 1 (Homo sapiens) (Q9UKI8 whole entry): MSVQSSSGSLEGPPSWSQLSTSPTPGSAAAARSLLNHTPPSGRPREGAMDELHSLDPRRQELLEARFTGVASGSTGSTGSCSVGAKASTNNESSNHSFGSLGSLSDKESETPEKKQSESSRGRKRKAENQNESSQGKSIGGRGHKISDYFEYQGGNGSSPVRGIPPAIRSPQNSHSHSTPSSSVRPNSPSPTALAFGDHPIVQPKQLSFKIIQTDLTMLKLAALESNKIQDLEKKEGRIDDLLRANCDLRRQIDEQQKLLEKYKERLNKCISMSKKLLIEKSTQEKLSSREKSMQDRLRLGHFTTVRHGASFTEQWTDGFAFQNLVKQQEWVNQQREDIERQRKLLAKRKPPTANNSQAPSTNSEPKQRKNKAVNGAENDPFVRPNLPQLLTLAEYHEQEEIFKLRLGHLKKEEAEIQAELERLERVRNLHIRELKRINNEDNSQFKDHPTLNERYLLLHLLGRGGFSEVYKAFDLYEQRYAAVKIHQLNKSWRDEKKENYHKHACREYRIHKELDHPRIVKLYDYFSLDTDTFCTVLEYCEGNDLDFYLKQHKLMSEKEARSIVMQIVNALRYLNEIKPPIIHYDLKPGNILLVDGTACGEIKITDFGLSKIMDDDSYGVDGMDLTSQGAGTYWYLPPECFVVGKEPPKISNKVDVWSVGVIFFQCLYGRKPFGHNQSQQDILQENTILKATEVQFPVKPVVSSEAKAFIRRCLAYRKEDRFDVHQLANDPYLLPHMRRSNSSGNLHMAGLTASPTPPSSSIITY

D(2) dopamine receptor = D(2) dopamine receptor (Homo sapiens, UniProt P14416); assay: GPCRScan assay: inhibition of D2; parameters: radioligand conc. used [nm] 0.4 – 1.0, parental cells stable fibroblast
[35] = molecular target: T1, Sodium-dependent dopamine transporter (Homo sapiens, UniProt Q01959); assay: […] binding assay (SLC6A3)
T1 sequence (Q01959 whole entry): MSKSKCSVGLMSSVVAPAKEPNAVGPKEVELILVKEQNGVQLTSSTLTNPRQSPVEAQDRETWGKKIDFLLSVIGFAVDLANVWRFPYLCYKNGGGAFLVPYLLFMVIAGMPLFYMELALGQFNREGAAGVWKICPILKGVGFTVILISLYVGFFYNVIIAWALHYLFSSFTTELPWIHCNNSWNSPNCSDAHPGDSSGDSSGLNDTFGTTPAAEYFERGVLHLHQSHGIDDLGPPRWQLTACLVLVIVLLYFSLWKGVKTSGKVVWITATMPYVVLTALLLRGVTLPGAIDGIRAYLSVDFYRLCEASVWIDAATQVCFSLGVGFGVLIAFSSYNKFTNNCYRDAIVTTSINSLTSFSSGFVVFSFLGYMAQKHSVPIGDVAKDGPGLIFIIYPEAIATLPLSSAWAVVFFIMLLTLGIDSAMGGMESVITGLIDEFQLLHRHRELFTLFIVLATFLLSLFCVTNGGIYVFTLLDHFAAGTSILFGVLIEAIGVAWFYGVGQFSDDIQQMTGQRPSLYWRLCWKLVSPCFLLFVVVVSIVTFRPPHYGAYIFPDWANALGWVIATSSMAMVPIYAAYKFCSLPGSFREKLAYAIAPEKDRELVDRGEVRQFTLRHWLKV

[36] = molecular target: Inhibitor of nuclear factor kappa-B kinase subunit alpha (Homo sapiens) (UniProt O15111); details: Compound concentration 1000.0 nM
[37] = molecular target: Inhibitor of nuclear factor kappa-B kinase subunit epsilon (Homo sapiens) (UniProt Q14164); details: Compound concentration 1000.0 nM
[38] = molecular target: MAP kinase-activated protein kinase 2 (Homo sapiens) (UniProt P49137); details: Compound concentration 1000.0 nM
[39] = molecular target: Hepatocyte growth factor receptor (Homo sapiens) (UniProt P08581); details: Compound concentration 1000.0 nM
[40] = test system: Hepatocyte growth factor receptor (Homo sapiens), P08581 [Y1235D]; details: Compound concentration 1000.0 nM
[41] = molecular target: 5-hydroxytryptamine receptor 2B (Homo sapiens) (UniProt P41595); details: Compound concentration 10.0 uM
[42] = molecular target: T1, Sodium-dependent dopamine transporter; details: Compound concentration 10.0 uM
[43] = molecular target: Kappa-type opioid receptor (Homo sapiens) (UniProt P41145); details: Compound concentration 10.0 uM
[44] = molecular target: Histamine H2 receptor (Homo sapiens) (UniProt P25021); details: Compound concentration 10.0 uM

Row | Structure (SMILES) | residual activity [4] [%] | residual activity [5] [%] | residual activity [8] [%] | residual activity [9] [%] | residual activity [10] [%] | residual activity [11] [%] | residual activity [12] [%] | residual activity [13] [%] | residual activity [14] [%] | residual activity [15] [%] | residual activity [16] [%] | residual activity [17] [%] | residual activity [18] [%] | residual activity [19] [%] | residual activity [20] [%] | residual activity [21] [%] | residual activity [22] [%] | residual activity [24] [%] | residual activity [25] [%] | residual activity [26] [%] | further results
1 | CN([C@@H]1CCc2c(CC(=O)O)c3cc(S(C)(=O)=O)ccc3n2C1)S(=O)(=O)c1ccc(F)cc1 | 96 | 100 | 100 | 100 | 87 | 100 | 100 | 80 | 100 | 90 | 82 | 92 | 90 | 76 | 86 | 100 | 100 | 100 | 100 | 100 | residual activity [1]: 90%; residual activity [2]: 88%; residual activity [3]: 74%; residual activity [6]: 98%; residual activity [7]: 90%; residual activity [23]: 100%; residual activity [27]: 100%; residual activity [28]: 98%; residual activity [29]: 84%; residual activity [30]: 97%; residual activity [31]: 100%; residual activity [32]: 97%; residual activity [33]: 88%; residual activity [34]: 100%
2 | CN([C@@H]1CCc2c(CC(=O)O)c3ccccc3n2C1)S(=O)(=O)c1ccc(F)cc1 [MK-7246] | 100 | 100 | 91 | 100 | 82 | 100 | 100 | 95 | 100 | 88 | 83 | 100 | 100 | 91 | 100 | 100 | 100 | 100 | 100 | 100 | Ki (D(2) dopamine receptor): 3.75 µM; Ki [35]: 0.373 µM (not active); residual activity [36]: 100%; residual activity [37]: 84%; residual activity [38]: 100%; residual activity [39]: 100%; residual activity [40]: 100%; residual activity [27]: 100%; residual activity [28]: 100%; residual activity [29]: 86%; residual activity [30]: 100%; residual activity [31]: 100%; residual activity [32]: 96%; residual activity [33]: 81%; residual activity [34]: 100%; inhibition [41]: -4.07%; inhibition [42]: 77.1%; inhibition [43]: 4.56%; inhibition [44]: -1.62%
